According to patent US5028440A, “Method of raising meat producing animals to increase lean tissue development” (Iowa State University Research Foundation, Inc., priority 1990, dated 1991):
“Also recorded” adds a separate entry of the source.

How the values were obtained:
[1] = Stability of KIC or HMB in the rumen (incubation in rumen fluid); assay type: in vitro ADME, steer; conditions: for KIC or HMB in rumen fluid: 39° C.
Procedure: Rumen fluid was collected from a fistulated steer. After filtration and dilution (1:4) with an artificial saliva, 25ml of the solution was added to 50ml plastic tubes. Each tube was fitted with a one-way valve to allow gases to escape while not allowing air into the tube. Each tube was then gassed with CO2 and incubated at 39° C. After 30 min a solution of KIC or HMB was added to the tube in concentrations to simulate what would be present in the rumen of an animal consuming 0.05% of the diet as KIC or HMB. It was estimated that a 50 uM concentration would be attained in this case. At timed intervals 50 ul samples of this rumen fluid were taken and analyzed for KIC and HMB.

lambs [2] = experiment: Feeding of HMB to Lambs--Trial 1; assay type: in vivo
Excerpt: Animals and Experimental Design. Three sets of twin lambs were housed individually in fiberglass pens. Animals were randomly assigned to control or HMB diets, using Ca-HMB as the feed additive at a level of 0.5% of the basal diet.
Composition of Basal Diet Fed to All Sheep.
(§1) Trace mineral & vitamin premix

lambs [3] = experiment: Feeding of HMB to Lambs--Trial 2; assay type: in vivo
Excerpt: Animals and Experimental Design. Twenty-two lambs were housed individually in fiberglass pens (1.15 m^2) and randomly assigned to control or HMB diets. The control had nothing added to the diet while the HMB animals had 1 g of CaHMB supplemented to their diets each day. At the beginning of the experiment animals were weighed and ultrasound measurement made of the longissimus area and the amount of fat over the longissimus muscle. These measurements were made over the 12th rib area. Feed consumption was monitored. At the end of the experiment animals were weighed, feed consumption measured and the longissimus area and fat thickness measured again with the ultrasound apparatus. The gain in longissimus area and backfat were calculated from the initial value.
Composition of Basal Diet Fed to All Sheep
as §1

male leghorn chicks = experiment: Feeding HMB to Poultry: growth, feed efficiency and breast muscle of chicks; assay type: in vivo; conditions: 0.04% of the diet; for Feed/gain / Breast muscle / Gain: 5 week data; for Feed/gain: control 2.30; for Breast muscle: control 2.84; for Gain: control 222; for Breast muscle, change from control / Feed/gain, change from control: ** (HMB) significant at p < .02
Procedure: (§2) To compare KIC and HMB as growth promotants, young male leghorn chicks were allotted to 12 battery (wire mess floors) pens consisting of 10 birds each. Treatments of control, HMB (0.04% of the diet) and KIC (0.04% of the diet) were assigned to the pens. Feed consumption was measured during the 5 week experiment. During week 2 of the experiment chicks were injected with 50 ul of a 20% suspension of pig red blood cells intraperitoneally.
(§3) Chicks were fed a diet adequate in all nutrients for leghorns of this age. HMB was a supplement to this diet at 0.04% of the diet (w/w).
(§4) At the end of the 5 week experiment chicks were decapitated and serum collected for pig red blood cells antibody titer determination. Titers to red blood cells were evaluated by a microtiter agglutination test (Kuhlman, et al.). Also, the Pectoralis major muscle (the major breast muscle) was dissected and weighed as a measure of muscle growth.

pig red blood cells = experiment: Pig red blood cell antibody titer in chicks (microtiter agglutination test); assay type: in vivo, chicks (male leghorn); conditions: 0.04% of the diet, 5 weeks; for Red blood cell titer, change from control: ** (HMB) significant at p < .02; for Red blood cell titer: pig red blood cells injected week 2, control 1.57
Procedure: as §2, §3, §4

domestic animals [4] = experiment: Growth metabolism of domestic animals, HMB compared with KIC (summary statement); conditions: in vivo
[5] = feeds for cattle and sheep; background statement; cited from earlier work
domestic animals [6] = conditions: cited from earlier work
[7] = KIC fed as replacement for leucine; cited from earlier work
[8] = Hygroscopicity of HMB salts; assay type: physicochemical
[9] = 0 min after addition, rumen fluid diluted 1:4 with artificial saliva, initial KIC could only be estimated
[10] = 15 min after addition, rumen fluid diluted 1:4
[11] = 30 min after addition, rumen fluid diluted 1:4
[12] = 60 min after addition, rumen fluid diluted 1:4
[13] = 240 min after addition, rumen fluid diluted 1:4
[14] = 480 min after addition, rumen fluid diluted 1:4

Question: Which “stability in rumen environment (in words)” value [1] does the source give for `CC(C)(O)CC(=O)O` [HMB, β-hydroxy-β-methyl butyric acid] here?
Answer: not being subject to appreciable rumen destruction; also recorded: not subject to significant rumen destruction; also recorded: quite stable in a rumen environment

Question: What about the “KIC or HMB in rumen fluid” value [1, 9] of the same compound?
Answer: 60 µM

Question: And the “KIC or HMB in rumen fluid” value [1, 10]?
Answer: 76 µM

Question: And the “KIC or HMB in rumen fluid” value [1, 11]?
Answer: 81 µM

Question: What about the “KIC or HMB in rumen fluid” value [1, 12] of the same compound?
Answer: 71 µM

Question: What about the “KIC or HMB in rumen fluid” value [1, 13] of the same compound?
Answer: 74 µM

Question: And the “KIC or HMB in rumen fluid” value [1, 14]?
Answer: 74 µM

Question: And the Longissimus area (lambs [2]; Ca-HMB 0.5% of the basal diet, control 2.1)?
Answer: 2.3 sq. in.

Question: What about the “Renal Fat %” value (lambs [2]; Ca-HMB 0.5% of the basal diet, control 2.42) of the same compound?
Answer: 1.90 % of animal live weight

Question: What about the Feed/gain (lambs [2]; Ca-HMB 0.5% of the basal diet, control 3.89) of the same compound?
Answer: 3.60

Question: What about the “Back Fat (fat thickness over 12th rib)” value (lambs [2]; Ca-HMB 0.5% of the basal diet, control .21) of the same compound?
Answer: .12 in

Question: And the Average daily gain (lambs [2]; Ca-HMB 0.5% of the basal diet, control .287)?
Answer: .296 kg/day

Question: And the “lean tissue and fat growth (in words)” value (lambs [2]; limited study, vs controls)?
Answer: appeared to stimulate growth of lean tissues at the expense of fat

Question: What about the “% change due to HMB, Average daily gain” value (lambs [2]; vs controls) of the same compound?
Answer: +3%

Question: And the “% change due to HMB, Feed/Gain” value (lambs [2]; vs controls)?
Answer: -7%

Question: What about the “% change due to HMB, Longissimus area” value (lambs [2]; vs controls) of the same compound?
Answer: +10%

Question: And the “% change due to HMB, Back Fat” value (lambs [2]; vs controls, *P < 0.5)?
Answer: -43%

Question: What about the “% change due to HMB, Renal Fat” value (lambs [2]; vs controls, *P < 0.5) of the same compound?
Answer: -22%

Question: And the Feed/gain (lambs [3]; 1 g CaHMB per day, control 4.41)?
Answer: 4.28

Question: What about the Total gain (lambs [3]; 1 g CaHMB per day, lambs from 60 lbs. to 100 lbs., control 38.5) of the same compound?
Answer: 40.5 lbs

Question: And the Loin area gain (lambs [3]; 1 g CaHMB per day, ultrasound, control 2.08)?
Answer: 3.34 cm2

Question: What about the Back fat gain (lambs [3]; 1 g CaHMB per day, ultrasound, control .27) of the same compound?
Answer: .19 cm

Question: What about the “% Change, Feed/gain” value (lambs [3]; vs control) of the same compound?
Answer: -3%

Question: What about the “% Change, Total gain” value (lambs [3]; vs control) of the same compound?
Answer: +6%

Question: And the “performance and lean vs. fat gain (in words)” value (lambs [3]; vs control)?
Answer: increases preformance and increases lean vs. fat gain

Question: What about the “% Change, Back fat gain” value (lambs [3]; vs control, **P < .02 level) of the same compound?
Answer: -30%

Question: What about the “% Change, Loin area gain” value (lambs [3]; vs control, **P < .02 level) of the same compound?
Answer: 60%

Question: And the Feed/gain (male leghorn chicks)?
Answer: 2.17

Question: And the Breast muscle (male leghorn chicks)?
Answer: 3.00%

Question: And the Gain (male leghorn chicks)?
Answer: 229 g

Question: And the “Gain, change from control” value (male leghorn chicks; 5 weeks)?
Answer: 3.3%

Question: And the “comparison with KIC in all parameters (in words)” value (male leghorn chicks; 5 weeks)?
Answer: superior in all parameters measured

Question: What about the “performance of growing chicks (in words)” value (male leghorn chicks; 5 weeks) of the same compound?
Answer: increased performance of growing chicks by increasing the rate of growth and by making more efficient use of feed for growth

Question: What about the “Breast muscle, change from control” value (male leghorn chicks; 5 weeks) of the same compound?
Answer: 5.5%

Question: What about the “Feed/gain, change from control” value (male leghorn chicks; 5 weeks) of the same compound?
Answer: -5.8%

Question: And the “Red blood cell titer, change from control” value (pig red blood cells)?
Answer: 107%

Question: What about the “Red blood cell titer” value (pig red blood cells) of the same compound?
Answer: 3.25 dilution

Question: And the “improving growth metabolism compared with KIC (in words)” value (domestic animals [4])?
Answer: more effective for improving growth metabolism of domestic animals

Question: What about the “lean tissue development (in words)” value (domestic animals [4]) of the same compound?
Answer: increase markedly the development of lean tissue

Question: What does the source list for `CC(C)CC(=O)C(=O)O` [KIC, α-keto-isocaproic acid, reference compound]?
Answer: stability in rumen environment (in words) [1]: rapidly destroyed by the rumen bacteria; KIC or HMB in rumen fluid [1, 9]: 30 µM; KIC or HMB in rumen fluid [1, 10]: 15 µM; KIC or HMB in rumen fluid [1, 11]: 4 µM; KIC or HMB in rumen fluid [1, 12]: 2 µM; KIC or HMB in rumen fluid [1, 13]: 2 µM; KIC or HMB in rumen fluid [1, 14]: 1 µM; Feed/gain (male leghorn chicks): 2.24; Breast muscle (male leghorn chicks): 2.94%; Gain (male leghorn chicks): 229 g; Gain, change from control (male leghorn chicks; 5 weeks): 3.3%; Breast muscle, change from control (male leghorn chicks; 5 weeks): 3.5%; Feed/gain, change from control (male leghorn chicks; 5 weeks): -2.5%; Red blood cell titer, change from control (pig red blood cells): 68%; Red blood cell titer (pig red blood cells): 2.65 dilution; accumulation of body fat (in words) (domestic animals [4]): slight tending for KIC to reduce the accumulation of body fat; lean tissue development (in words) (domestic animals [4]): not obtainable with KIC; rumen destruction (in words) [5]: subject to partial rumen destruction; effects on the immune system (in words) (domestic animals [6]; U.S. Pat. No. 4,835,185): some apparently beneficial effects on the immune system; cholesterol in meat, milk and eggs (in words) (domestic animals [6]; U.S. Pat. Nos. 4,760,090 and 4,760,531): cholesterol reduction in meat, milk and eggs; consistency of beneficial effects (in words) (domestic animals [6]; domestic animals, particularly ruminants): not consistently obtainable; milk production (in words) (domestic animals [6]; lactating domestic animals, such as dairy cattle, U.S. Pat. No. 4,758,593): the quantity of milk produced may be increased; egg production (in words) (domestic animals [6]; laying chickens, U.S. Pat. No. 4,760,531): can also sometimes be increased; wool production (in words) (domestic animals [6]; mature sheep, U.S. Pat. No. 4,760,090): the amount of wool produced may also be increased; rates of weight gain and/or feed efficiencies (in words) (domestic animals [6]; milligram amounts of KIC, U.S. Pat. Nos. 4,760,090 and 4,883,817): some increases in the rates of weight gain and/or feed efficiencies have been obtained; muscle growth (in words) (domestic animals [6]; previous research): generally has not been found to stimulate muscle growth; fat deposition (in words) (domestic animals [6]; sheep, previous research): decrease fat deposition; amount of KIC required relative to nutritionally required amount of leucine [7]: two to three

Question: Which “hygroscopicity (in words)” value [8] does the source give for `CC(C)(O)CC(=O)O` [Na-HMB] here?
Answer: more hydroscopic than Ca-HMB
